Measured values reported in US10774111B2, “Opioid peptide” (Embrapa—Empresa Brasileira de Pesquisa Agropecuária, priority 2014, dated 2020).
Ends that are not written are not given here.

How the values were obtained:
trypsin = details: incubation with trypsin enzyme (enzymes present in the gastrointestinal tract), in vitro
Method: FIG. 11—Representation of the fragments obtained at the different incubation times with the enzyme trypsin. Analysis performed by mass spectrometry, MALDI. The first spectrum, marked with the letter A, refers to the time of 15 minutes; the second spectrum marked with the letter B indicates the time of 30 minutes; C indicates the time of 2 hour2; D indicates the time of 4 hours; and, finally, E is the control peptide (SEQ ID NO: 6).
FIG. 12—Representation of the fragments obtained at the different incubation times with the enzyme trypsin. Analysis performed by mass spectrometry, MALDI.
By means of this experiment it was possible to try to observe the in vitro peptide digestion by the enzyme present in the organism.

Swiss mice [1] = assay: Hot Plate nociception test in mice; assay type: in vivo, Mus musculus; details: i.p. in mice, dose based on dose and molarity of morphine 10 mg/kg (Leu-enkephalin 19.3 mg/kg), followed 120-240 min
Method: (§1) In vivo analyzes: Tests were carried out on Swiss mice of the Mus musculus species, in which nociception tests (Hot Plate and Tail Flick) were used according to Le Bars et al. (2001). Injections were administered via intraperitoneal (IP). Doses were based upon dose and molaridade of the morphine (10 mg/kg animal).
To initiate the nociceptive tests and verify the efficiency of the same, a pilot experiment was carried out using the peptide sequence SEQ ID NO: 2 and evaluating the behavior of the animals in the course of two hours.

Swiss mice [2] = assay: Tail Flick nociception test in mice; assay type: in vivo, Mus musculus; details: i.p. in mice, 240 min
Method: as §1

immobilized pepsin = immobilized pepsin (Homo sapiens, UniProt P0DJD8); details: 4 hours, 37° C., 1400 RPM
immobilized pepsin, sequence (P0DJD8 63-388): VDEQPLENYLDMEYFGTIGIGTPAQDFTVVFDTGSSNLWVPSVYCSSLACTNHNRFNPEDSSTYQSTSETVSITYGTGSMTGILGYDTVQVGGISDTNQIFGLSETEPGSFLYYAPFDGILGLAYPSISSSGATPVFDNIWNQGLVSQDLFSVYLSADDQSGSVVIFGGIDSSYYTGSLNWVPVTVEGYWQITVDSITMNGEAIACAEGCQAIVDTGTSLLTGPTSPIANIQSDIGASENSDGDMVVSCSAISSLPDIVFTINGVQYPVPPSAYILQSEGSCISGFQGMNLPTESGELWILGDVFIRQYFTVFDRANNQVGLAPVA
Method: Digestion of the immobilized pepsin precursor: the peptide sequence SEQ ID NO: 6 was digested using immobilized pepsin for a period of 4 hours at 37° C. under agitation of 1400 RPM evaluating the fragmentation index at the times of 15 minutes, 30 minutes, 2 hours and 4 hours.
The peptide sequence SEQ ID NO: 6 was digested using immobilized pepsin for a period of 4 hours, evaluating the fragmentation index at the times of 15 minutes, 30 minutes, 2 hours and 4 hours.
Enkephalin (Leu) was digested using immobilized pepsin for a period of 4 hours, evaluating the fragmentation index at the times of 30 minutes, 1 hour, 2 hours and 4 hours.

Row | Compound | intensity of the major peak during incubation (trypsin) | antinociceptive (opioid) activity, latency index (Swiss mice [1]) | antinociceptive activity, latency index (Swiss mice [2]) | fragmentation index (precursor ion and lower mass ions over time) (immobilized pepsin)
1 | CC(C)C[C@H](NC(=O)[C@H](Cc1ccccc1)NC(=O)CNC(=O)CNC(=O)[C@@H](N)Cc1ccc(O)cc1)C(=O)O [Leu-enkephalin, reference compound] | reducing |  |  | 
2 | SEQ ID NO: 2: synthetic opioid peptide of the formula TyrGlyGly-X1-X2-X3-X4; sequence not printed in the text (YGGTGAH) |  | delayed and prolonged activity |  | 
3 | SEQ ID NO: 3: synthetic opioid peptide of the formula TyrGlyGly-X1-X2-X3-X4; sequence not printed in the text (YGGEGVQ) |  | possible to visualize the activity | possible to visualize the activity | 
4 | SEQ ID NO: 4: synthetic opioid peptide of the formula TyrGlyGly-X1-X2-X3-X4; sequence not printed in the text (YGGTTGT) |  | antinociception activity | antinociception activity | 
5 | SEQ ID NO: 5: synthetic opioid peptide of the formula TyrGlyGly-X1-X2-X3-X4; sequence not printed in the text (YGGEGEQ) |  | antinociceptive | antinociceptive | 
6 | YGGTAGAHGTY [SEQ ID NO: 6] | reducing |  |  | increase in the intensity of the lower mass ions over time and the decrease of the precursor ion
